Measurements published in paper PMC8799717, “Pharmacological targeting PIKfyve and tubulin as an effective treatment strategy for double-hit lymphoma” (Cell Death Discovery, 2022).

Legend:
Assay in all cases: biochemical
Parameters in all cases: KINOMEscan active-site-directed competition binding panel, 468 kinases, percent of DMSO control at 1 uM
Settings in all cases: KINOMEscan binding, percent of DMSO control; read-out: Ctrl%
ASK2 = molecular target: T1, ASK2 (Homo sapiens, UniProt O95382)
T1 construct: gene MAP3K6

CHEK1 = CHEK1 (Homo sapiens, UniProt O14757)
CSF1R = CSF1R (Homo sapiens, UniProt P07333)
Chain of CSF1R (P07333 whole entry): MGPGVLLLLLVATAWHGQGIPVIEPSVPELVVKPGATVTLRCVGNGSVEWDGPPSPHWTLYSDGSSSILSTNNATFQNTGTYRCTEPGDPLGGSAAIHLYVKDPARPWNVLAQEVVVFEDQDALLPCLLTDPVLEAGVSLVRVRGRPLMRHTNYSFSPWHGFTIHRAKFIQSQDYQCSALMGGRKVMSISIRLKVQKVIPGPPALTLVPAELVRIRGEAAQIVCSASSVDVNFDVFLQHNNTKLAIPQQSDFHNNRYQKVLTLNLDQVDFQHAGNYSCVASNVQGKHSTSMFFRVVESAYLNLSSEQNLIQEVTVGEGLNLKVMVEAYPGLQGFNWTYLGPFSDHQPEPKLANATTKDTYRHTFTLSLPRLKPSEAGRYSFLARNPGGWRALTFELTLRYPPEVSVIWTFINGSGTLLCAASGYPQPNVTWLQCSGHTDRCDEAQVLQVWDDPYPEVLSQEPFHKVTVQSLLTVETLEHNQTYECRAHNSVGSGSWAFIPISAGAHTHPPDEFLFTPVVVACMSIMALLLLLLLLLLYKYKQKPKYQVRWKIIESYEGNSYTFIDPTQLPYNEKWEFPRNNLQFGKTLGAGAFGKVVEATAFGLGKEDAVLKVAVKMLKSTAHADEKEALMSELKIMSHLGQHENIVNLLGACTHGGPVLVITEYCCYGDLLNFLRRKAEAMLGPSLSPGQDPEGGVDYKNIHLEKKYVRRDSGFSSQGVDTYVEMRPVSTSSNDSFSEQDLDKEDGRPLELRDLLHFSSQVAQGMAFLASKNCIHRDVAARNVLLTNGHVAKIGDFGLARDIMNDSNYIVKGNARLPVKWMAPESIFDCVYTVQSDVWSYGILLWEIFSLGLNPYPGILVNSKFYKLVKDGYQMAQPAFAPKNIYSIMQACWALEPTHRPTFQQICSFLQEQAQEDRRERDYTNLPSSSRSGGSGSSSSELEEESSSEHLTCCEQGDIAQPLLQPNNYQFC

CAMK1D = CAMK1D (Homo sapiens, UniProt Q8IU85)
EPHB1 = EPHB1 (Homo sapiens, UniProt P54762)
EGFR = EGFR (Homo sapiens, UniProt P00533)
DRAK2 = molecular target: T2, DRAK2 (Homo sapiens, UniProt O94768)
T2 construct: gene STK17B

MAP3K2 = MAP3K2 (Homo sapiens, UniProt Q9Y2U5)
[1] = molecular target: T3, RSK2(Kin.Dom.1-N-terminal) (Homo sapiens, UniProt P51812)
T3 construct: gene RPS6KA3; Kin.Dom.1-N-terminal

KIT(V559D,T670I) = KIT(V559D,T670I) (Homo sapiens, UniProt P10721, T670I/V559D)
Chain of KIT(V559D,T670I) (P10721 whole entry V559D/T670I): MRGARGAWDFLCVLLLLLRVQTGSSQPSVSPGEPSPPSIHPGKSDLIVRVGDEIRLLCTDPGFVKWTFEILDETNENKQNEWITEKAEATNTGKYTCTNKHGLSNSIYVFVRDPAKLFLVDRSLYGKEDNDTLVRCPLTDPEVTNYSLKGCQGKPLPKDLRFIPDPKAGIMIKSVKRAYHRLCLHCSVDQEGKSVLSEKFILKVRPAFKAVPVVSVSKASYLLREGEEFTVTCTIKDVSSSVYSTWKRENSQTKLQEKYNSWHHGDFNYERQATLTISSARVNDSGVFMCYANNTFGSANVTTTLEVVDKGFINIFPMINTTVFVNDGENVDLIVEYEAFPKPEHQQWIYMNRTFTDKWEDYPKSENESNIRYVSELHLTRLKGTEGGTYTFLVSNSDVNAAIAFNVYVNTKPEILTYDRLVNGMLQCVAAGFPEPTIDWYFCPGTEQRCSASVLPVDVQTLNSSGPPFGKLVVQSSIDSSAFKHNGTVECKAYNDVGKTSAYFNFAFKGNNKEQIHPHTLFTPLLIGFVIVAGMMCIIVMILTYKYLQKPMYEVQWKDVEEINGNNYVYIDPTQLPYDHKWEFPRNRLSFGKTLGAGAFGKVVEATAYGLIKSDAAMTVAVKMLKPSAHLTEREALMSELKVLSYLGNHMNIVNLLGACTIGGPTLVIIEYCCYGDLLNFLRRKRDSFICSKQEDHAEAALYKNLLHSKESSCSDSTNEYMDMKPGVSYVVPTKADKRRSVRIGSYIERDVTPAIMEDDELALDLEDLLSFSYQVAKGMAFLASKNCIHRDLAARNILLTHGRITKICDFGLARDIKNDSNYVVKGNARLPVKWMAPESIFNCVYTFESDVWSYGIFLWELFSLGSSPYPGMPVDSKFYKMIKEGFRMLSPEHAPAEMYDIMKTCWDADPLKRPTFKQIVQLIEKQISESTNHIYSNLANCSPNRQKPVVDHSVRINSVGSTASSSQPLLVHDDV

TYRO3 = TYRO3 (Homo sapiens, UniProt Q06418)
EPHA6 = EPHA6 (Homo sapiens, UniProt Q9UF33)
Chain of EPHA6 (Q9UF33 whole entry): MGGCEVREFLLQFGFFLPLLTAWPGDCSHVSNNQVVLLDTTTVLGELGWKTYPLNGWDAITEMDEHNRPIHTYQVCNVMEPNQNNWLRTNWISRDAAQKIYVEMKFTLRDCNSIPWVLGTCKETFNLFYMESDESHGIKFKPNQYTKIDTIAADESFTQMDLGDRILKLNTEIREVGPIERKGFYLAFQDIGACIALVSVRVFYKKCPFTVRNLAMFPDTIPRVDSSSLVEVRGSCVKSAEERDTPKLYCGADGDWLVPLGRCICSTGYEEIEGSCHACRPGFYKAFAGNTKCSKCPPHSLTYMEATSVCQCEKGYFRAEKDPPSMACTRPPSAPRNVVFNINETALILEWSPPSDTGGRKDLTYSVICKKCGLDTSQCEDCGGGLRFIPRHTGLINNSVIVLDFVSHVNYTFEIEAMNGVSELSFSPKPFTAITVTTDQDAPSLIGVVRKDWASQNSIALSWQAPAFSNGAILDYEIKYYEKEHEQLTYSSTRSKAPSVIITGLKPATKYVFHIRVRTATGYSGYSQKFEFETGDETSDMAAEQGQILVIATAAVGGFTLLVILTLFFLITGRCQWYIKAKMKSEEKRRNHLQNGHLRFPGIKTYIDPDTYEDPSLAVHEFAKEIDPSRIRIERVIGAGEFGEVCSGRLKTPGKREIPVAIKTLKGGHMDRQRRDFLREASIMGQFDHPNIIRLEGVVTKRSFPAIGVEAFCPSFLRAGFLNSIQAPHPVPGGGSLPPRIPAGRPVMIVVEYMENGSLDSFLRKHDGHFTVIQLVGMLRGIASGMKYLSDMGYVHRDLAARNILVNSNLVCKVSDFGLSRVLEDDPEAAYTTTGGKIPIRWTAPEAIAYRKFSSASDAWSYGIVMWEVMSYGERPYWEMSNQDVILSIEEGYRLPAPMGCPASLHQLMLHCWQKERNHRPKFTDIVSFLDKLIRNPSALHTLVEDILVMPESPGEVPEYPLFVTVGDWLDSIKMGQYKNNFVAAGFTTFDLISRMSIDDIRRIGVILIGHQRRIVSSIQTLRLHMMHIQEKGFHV

NDR1 = molecular target: T4, NDR1 (Homo sapiens, UniProt Q15208)
T4 construct: gene STK38

ERK2 = molecular target: T5, ERK2 (Homo sapiens, UniProt P28482)
T5 construct: gene MAPK1
T5 sequence (P28482 whole entry): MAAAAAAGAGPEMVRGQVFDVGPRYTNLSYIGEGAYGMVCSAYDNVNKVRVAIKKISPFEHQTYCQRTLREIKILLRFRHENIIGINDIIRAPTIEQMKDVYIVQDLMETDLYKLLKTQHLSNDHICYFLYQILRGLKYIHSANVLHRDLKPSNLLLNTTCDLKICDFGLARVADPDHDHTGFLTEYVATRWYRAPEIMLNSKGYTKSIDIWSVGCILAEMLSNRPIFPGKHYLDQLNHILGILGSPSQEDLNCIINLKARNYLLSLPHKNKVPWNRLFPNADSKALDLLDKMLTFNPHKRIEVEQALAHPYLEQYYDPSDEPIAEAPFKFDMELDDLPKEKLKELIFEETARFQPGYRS

MEK1 = molecular target: T6, MEK1 (Homo sapiens, UniProt Q02750)
T6 construct: gene MAP2K1
T6 sequence (Q02750 whole entry): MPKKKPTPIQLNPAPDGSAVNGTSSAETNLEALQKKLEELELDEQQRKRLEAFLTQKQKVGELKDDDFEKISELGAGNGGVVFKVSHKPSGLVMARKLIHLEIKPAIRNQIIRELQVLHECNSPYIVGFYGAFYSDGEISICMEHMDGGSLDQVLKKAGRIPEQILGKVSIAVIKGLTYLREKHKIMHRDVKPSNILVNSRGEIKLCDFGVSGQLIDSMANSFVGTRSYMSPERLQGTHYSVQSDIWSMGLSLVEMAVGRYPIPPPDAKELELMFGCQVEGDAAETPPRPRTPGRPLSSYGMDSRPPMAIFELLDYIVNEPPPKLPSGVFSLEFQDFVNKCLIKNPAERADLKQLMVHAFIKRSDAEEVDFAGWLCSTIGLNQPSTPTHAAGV

IRAK1 = IRAK1 (Homo sapiens, UniProt P51617)
ULK3 = ULK3 (Homo sapiens, UniProt Q6PHR2)
EPHA4 = EPHA4 (Homo sapiens, UniProt P54764)
CDC2L1 = molecular target: T7, CDC2L1 (Homo sapiens, UniProt P21127)
T7 construct: gene CDK11B

AKT2 = AKT2 (Homo sapiens, UniProt P31751)
NEK2 = NEK2 (Homo sapiens, UniProt P51955)
Chain of NEK2 (P51955 whole entry): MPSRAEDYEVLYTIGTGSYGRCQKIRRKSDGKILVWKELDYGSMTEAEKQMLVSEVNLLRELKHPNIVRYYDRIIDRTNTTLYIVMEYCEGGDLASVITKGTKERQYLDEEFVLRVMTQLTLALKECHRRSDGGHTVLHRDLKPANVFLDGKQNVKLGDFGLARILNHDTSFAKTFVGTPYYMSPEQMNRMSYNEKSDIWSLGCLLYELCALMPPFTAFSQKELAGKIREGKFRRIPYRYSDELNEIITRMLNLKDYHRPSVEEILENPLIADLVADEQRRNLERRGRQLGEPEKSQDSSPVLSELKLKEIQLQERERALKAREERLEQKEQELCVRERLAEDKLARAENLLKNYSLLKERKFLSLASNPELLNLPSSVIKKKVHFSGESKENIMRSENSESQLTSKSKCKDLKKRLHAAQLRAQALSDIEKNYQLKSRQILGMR

MUSK = MUSK (Homo sapiens, UniProt O15146)
ERK4 = molecular target: T8, ERK4 (Homo sapiens, UniProt P31152)
T8 construct: gene MAPK4
T8 sequence (P31152 whole entry): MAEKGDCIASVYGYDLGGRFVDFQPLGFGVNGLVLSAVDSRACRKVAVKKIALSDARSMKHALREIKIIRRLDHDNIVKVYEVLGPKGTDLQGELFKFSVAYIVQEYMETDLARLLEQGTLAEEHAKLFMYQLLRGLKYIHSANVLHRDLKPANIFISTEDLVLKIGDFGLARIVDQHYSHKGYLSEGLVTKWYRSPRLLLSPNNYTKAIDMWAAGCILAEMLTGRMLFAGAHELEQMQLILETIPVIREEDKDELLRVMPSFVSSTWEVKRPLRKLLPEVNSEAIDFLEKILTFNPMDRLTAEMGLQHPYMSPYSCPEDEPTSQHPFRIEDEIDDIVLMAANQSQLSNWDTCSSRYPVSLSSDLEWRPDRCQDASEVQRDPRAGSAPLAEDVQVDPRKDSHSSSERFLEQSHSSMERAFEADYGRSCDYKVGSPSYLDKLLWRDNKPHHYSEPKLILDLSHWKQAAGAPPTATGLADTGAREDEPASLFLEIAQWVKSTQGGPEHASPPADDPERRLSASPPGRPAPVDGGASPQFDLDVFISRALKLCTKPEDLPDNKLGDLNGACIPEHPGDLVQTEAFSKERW

MET = MET (Homo sapiens, UniProt P08581)

## Cc1ccc(NC(=O)c2cccc(C(F)(F)F)c2)cc1Nc1cc(-c2cccnc2)nc2[nH]ccc12 [HZX-02-059]
ASK2
  remaining binding at 1 µM: 66%
CHEK1
  remaining binding at 1 µM: 88%
CSF1R
  remaining binding at 1 µM: 6.1%
CAMK1D
  remaining binding at 1 µM: 100%
EPHB1
  remaining binding at 1 µM: 39%
EGFR
  remaining binding at 1 µM: 67%
DRAK2
  remaining binding at 1 µM: 88%
MAP3K2
  remaining binding at 1 µM: 74%
[1]
  remaining binding at 1 µM: 78%
KIT(V559D,T670I)
  remaining binding at 1 µM: 80%
TYRO3
  remaining binding at 1 µM: 100%
EPHA6
  remaining binding at 1 µM: 69%
NDR1
  remaining binding at 1 µM: 100%
ERK2
  remaining binding at 1 µM: 100%
MEK1
  remaining binding at 1 µM: 100%
IRAK1
  remaining binding at 1 µM: 100%
ULK3
  remaining binding at 1 µM: 91%
EPHA4
  remaining binding at 1 µM: 8.3%
CDC2L1
  remaining binding at 1 µM: 75%
AKT2
  remaining binding at 1 µM: 85%
NEK2
  remaining binding at 1 µM: 66%
MUSK
  remaining binding at 1 µM: 100%
ERK4
  remaining binding at 1 µM: 99%
MET
  remaining binding at 1 µM: 94%
